# According to patent US12708655B2, “Botanicals as WNT/beta-catenin activators, molecular pathway regulators, tissue regenerators and health biomarker regulators” (Arbor Life Holdings, Ltd., priority 2020, dated 2026):
# What was measured:
# [1] = tested on: human dermal papilla cells; conditions: in vitro; cited from earlier work
# [2] = tested on: LNCaP prostate cancer cells; conditions: cells stimulated by DHT; cited from earlier work
# androgen receptor = biological target: T1, androgen receptor (Homo sapiens, UniProt P10275); conditions: human dermal papilla cells; cited from earlier work
# T1 construct: nuclear translocation of the androgen receptor stimulated by DHT in human dermal papilla cells; host or cells: human dermal papilla cells
# T1 sequence (P10275 1-920): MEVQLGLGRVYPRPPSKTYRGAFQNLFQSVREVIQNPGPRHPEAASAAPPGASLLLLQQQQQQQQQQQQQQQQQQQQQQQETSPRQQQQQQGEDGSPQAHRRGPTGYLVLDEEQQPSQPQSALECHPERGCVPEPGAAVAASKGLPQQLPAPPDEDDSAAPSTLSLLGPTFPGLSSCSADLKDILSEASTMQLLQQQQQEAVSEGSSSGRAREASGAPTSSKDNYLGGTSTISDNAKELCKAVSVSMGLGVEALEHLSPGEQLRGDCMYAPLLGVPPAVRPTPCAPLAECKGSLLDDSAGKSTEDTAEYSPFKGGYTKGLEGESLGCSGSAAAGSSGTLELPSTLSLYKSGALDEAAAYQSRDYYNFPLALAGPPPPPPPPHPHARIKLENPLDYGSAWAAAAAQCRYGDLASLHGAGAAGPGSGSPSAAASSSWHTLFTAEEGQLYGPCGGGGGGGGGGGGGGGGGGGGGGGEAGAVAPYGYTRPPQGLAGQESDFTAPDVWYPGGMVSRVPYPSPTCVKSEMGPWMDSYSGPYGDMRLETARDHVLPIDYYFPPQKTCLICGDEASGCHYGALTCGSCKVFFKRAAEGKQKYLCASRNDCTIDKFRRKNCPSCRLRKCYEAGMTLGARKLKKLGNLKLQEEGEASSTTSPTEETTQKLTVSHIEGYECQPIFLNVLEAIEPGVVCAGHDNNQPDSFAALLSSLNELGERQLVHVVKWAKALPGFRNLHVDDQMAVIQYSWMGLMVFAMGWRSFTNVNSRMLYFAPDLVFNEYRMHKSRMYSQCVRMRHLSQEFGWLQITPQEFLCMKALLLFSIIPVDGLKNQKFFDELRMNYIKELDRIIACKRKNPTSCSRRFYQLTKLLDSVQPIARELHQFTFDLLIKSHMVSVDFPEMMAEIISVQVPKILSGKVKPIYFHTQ
# [3] = tested on: androgentic alopecia and telogen effluvium in Women; conditions: adjusted to 24 weeks, from clinical trial or systematic review; cited from earlier work
# [4] = tested on: androgentic alopecia and telogen effluvium in Women; assay: Comparative analysis of clinical trial results in women versus standard of care, adjusted to 24 weeks; assay type: in vivo, human
# [5] = tested on: androgenetic alopecia and telogen effluvium in Men; conditions: adjusted to 24 weeks, cited from earlier work
# [6] = tested on: androgenetic alopecia and telogen effluvium in Men; assay: Comparative analysis of clinical trial results in men versus standard of care, adjusted to 24 weeks; assay type: in vivo, human
SMILES,proliferation of human dermal papilla cells [1],overgrowth of LNCaP prostate cancer cells [2],nuclear translocation of the androgen receptor stimulated by DHT (androgen receptor),"Changes in Terminal Hairs per sq.cm, difference between active and placebo groups [3]",Efficacy Factor Multiple vs 2% Minoxidil [4],Changes in Terminal Hairs per sq.cm vs placebo ([5]; from clinical trial or systematic review),"Changes in Terminal hair count per sq·cm versus placebo, comparators ([5]; systematic reviews of randomized controlled trials)",Efficacy Factor Multiple vs 2% Minoxidil [6]
O=C(O)[C@H]1O[C@@H](Oc2cc3oc(-c4ccccc4)cc(=O)c3c(O)c2O)[C@H](O)[C@@H](O)[C@@H]1O [baicalin],enhanced proliferation,dose-dependently inhibited,inhibited,–,–,–,–,–
"CC(C)(C)NC(=O)[C@H]1CC[C@H]2[C@@H]3CC[C@H]4NC(=O)C=C[C@]4(C)[C@H]3CC[C@]12C [finasteride 1 mg, finasteride]",–,–,–,−1.0 per sq.cm,−0.1,6.4 per sq.cm,6.4 per sq·cm,1.0
